Patent publication US7723366B2 (Chugai Seiyaku Kabushiki Kaisha, priority 2001, dated 2010)

Key:
[1] = test system: muscle (M) isoform of CPT-I; conditions: read-out: IC50 of malonyl-CoA inhibition of CPT-I; cited from earlier work
[2] = test system: human breast cancer cells and xenografts; conditions: cited from earlier work
[3] = biological target: T1, malonyl-CoA decarboxylase prepared from rat heart (Rattus norvegicus, UniProt Q920F5); assay: In vitro MCD inhibitory assay (spectrophotometric, 96 well); assay type: biochemical; conditions: read-out: IC50 of the MCD inhibitors
T1 construct: from tissue; host or cells: rat heart
T1 sequence (Q920F5 39-492): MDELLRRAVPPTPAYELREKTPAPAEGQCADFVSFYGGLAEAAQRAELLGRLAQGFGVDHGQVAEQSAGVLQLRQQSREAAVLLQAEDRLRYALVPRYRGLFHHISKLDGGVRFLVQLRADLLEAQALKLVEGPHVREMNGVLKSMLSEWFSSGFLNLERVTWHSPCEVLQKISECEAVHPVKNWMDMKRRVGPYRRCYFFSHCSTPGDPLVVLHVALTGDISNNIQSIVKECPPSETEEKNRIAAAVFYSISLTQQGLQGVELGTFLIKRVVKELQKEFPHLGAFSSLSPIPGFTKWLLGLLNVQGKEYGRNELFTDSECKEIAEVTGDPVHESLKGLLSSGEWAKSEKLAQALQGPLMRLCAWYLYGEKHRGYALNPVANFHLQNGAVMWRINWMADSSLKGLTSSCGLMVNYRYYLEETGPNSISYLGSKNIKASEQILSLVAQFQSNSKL
Protocol: The following reagents are added into a 96 well titer plate: Tris-HCl buffer, 20 μL; DTE, 10 μL; I -malate, 20 μL; NAD, 10 μL; NADH, 25 μL; water, 80 μL; malic dehydrogenase, 5 μL. The contents are mixed and incubated for 2 min followed by the addition of 5 μL of citrate synthase. […] The content is incubated and absorbence at […] is measured.
Active compounds are characterized by the concentration of the compound that caused 50% inhibition of MCD activity (IC50).

[4] = test system: isolated working hearts from male Sprague-Dawley rats; assay: Glucose oxidation and fatty acid oxidation measurement in the perfused rat heart; conditions: compared with known metabolism modulators ranolazine or trimetazidine
Protocol: Isolated working hearts from male Sprague-Dawley rats are subjected to a 60-minute aerobic perfusion period with a modified Krebs-Henseleit solution containing 5 mmol/L glucose; 100 μU/mL insulin; 3% BAS; and 1.2 mmol/L palmitate. Working hearts are used in these studies to approximate the metabolic demand of the heart seen in vivo. (Kantor et al., Circulation Research 86:580-588(2000)). The test compound is added 5 minutes into the perfusion period.
Glucose oxidation rates are determined by the quantitative collection of ^14CO2 produced by hearts perfused with buffer containing […]. Rates of fatty acid oxidation are determined by the quantitative collection of ^14CO2 produced by hearts perfused with buffer containing [^14C]palmitate (McNeill, J. H. in “Measurement of cardiovascular function”, chapter 2, CRC press, New York (1997)).
Active compounds are characterized by an increase in glucose oxidation as compared to control experiment (DMSO). The compounds that caused statistically significant increases in glucose oxidation are considered to be active. The preferred compounds cause statistically significant increases in glucose oxidation at 20 μM. Statistical significance was calculated using the Student's t test for paired or unpaired samples, as appropriate. The results with P<0.05 are considered to be statistically significant.

Row | SMILES | IC50 [3] [nM] | also measured
1 | CC(C)(COP(=O)(O)OP(=O)(O)OC[C@H]1O[C@@H](n2cnc3c(N)ncnc32)[C@H](O)[C@@H]1OP(=O)(O)O)[C@@H](O)C(=O)NCCC(=O)NCCSC(=O)CC(=O)O [Malonyl-CoA] | – | IC50 [1]: 30 nM
2 | CCCCCCCCCCCCCCOc1ccc(C(=O)O)o1 [TOFA, 5-(tetradecyloxy)-2-furoic acid] | – | malonyl-CoA level ([2]; breast carcinoma cells): 60 % of the control; antitumor activity [2]: does not show any antitumor activity
3 | CCCCCCNc1ccc2nc(S)sc2c1 [Table 2; entry 1, 6-(hexylamino)-1,3-benzothiazole-2-thiol] | 535 | –
4 | CCCCCCN(C(=O)Nc1cc(OC)cc(OC)c1)c1ccc2nc(S)sc2c1 [Table 3; entry 1, N′-[3,5-bis(methyloxy)phenyl]-N-hexyl-N-(2-mercapto-1,3-benzothiazol-6-yl)urea] | 65 | effects in metabolism shift compared with ranolazine or trimetazidine [4]: more profound effects in metabolism shift
5 | CCCN(C(=O)N(CC(C)C)CC(C)C)c1ccc2nc(S)sc2c1 [Table 5; entry 5] | 263 | –
6 | O=S(=O)(c1ccc2sc(S)nc2c1)N1CCCCC1 [Table 7; entry 2] | 466 | –
7 | CCOC(=O)c1csc(S)n1 [Table 8; entry 1, Ethyl 2-Mercapto-1,3-thiazole-4-carboxylate] | – | melting point: 120 to 121 °C

Second part, led by results:

Row | IC50 [3] [nM] | SMILES | also measured
8 | 2620 | Sc1nc2ccc(NCc3ccccc3)cc2s1 [Table 2; entry 3, 6-[(phenylmethyl)amino]-1,3-benzothiazole-2-thiol] | –
9 | 54 | CCN(C(=O)Nc1ccccc1)c1ccc2nc(S)sc2c1 [Table 3; entry 5] | effects in metabolism shift compared with ranolazine or trimetazidine [4]: more profound effects in metabolism shift
10 | 240 | S=C(Nc1ccccc1)N(Cc1ccccc1)c1ccc2nc(S)sc2c1 [Table 3; entry 8] | –
11 | 1020 | O=C(COc1ccccc1)N(Cc1ccccc1)c1ccc2nc(S)sc2c1 [Table 4; entry 1, N-(2-mercapto-1,3-benzothiazol-6-yl)-N-(phenylmethyl)-2-(phenyloxy)acetamide] | –
